Columns and labels:
Details in all cases: 48 h
[1] = test system: P12-Ichikawa; test: cell viability relative to DMSO control; higher = less cytotoxic
In short: (§1)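 Viability values are per-plate percentages of DMSO wells, with background from cell-free wells. Library compounds in DMSO were pin-dosed, in an 11-point threefold series from 47 μM to 0.79 nM, onto NOMO1 or SEM (500 cells/well) or P12-Ichikawa (1000 cells/well) leukemia cells in 1536-well plates (5 μl). Those cells had been adapted for at least four passages in each medium, and CellTiter-Glo One luminescence was read after 48 h at 37°C.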

[2] = test system: SEM cells; test: as above
In short: as §1

[3] = test system: NOMO1; test: as above
In short: as §1

[4] = test system: P12-Ichikawa; test: AUC of viability dose-response curve (% viability x log10 dose units); higher = less sensitive
In short: (§2)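 Viability of medium-adapted leukemia cells was measured by CellTiter-Glo One luminescence after 48 h at 37°C with library compounds in DMSO. Doses were 11 threefold steps from 47 μM to 0.79 nM, in 1536-well plates at 500 or 1000 cells/well. Signals were normalised per plate to DMSO and cell-free wells and fitted with a four-parameter log-logistic model on log10 dose. Area under the curve was integrated by trapezoidal rule, with curves exceeding full viability scaled and failed quality-control curves removed.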

[5] = test system: SEM cells; test: as above
In short: as §2

[6] = test system: NOMO1; test: as above
In short: as §2

N=C(N)c1ccc(OCCCCCOc2ccc(C(=N)N)cc2)cc1
cell viability [%]
Details	[1]	[2]	[3]
HPLM + 10% dialyzed FBS, 0.000781 µM	101	72.7	111
HPLM + 10% dialyzed FBS, 0.00234 µM	108	115	105
HPLM + 10% dialyzed FBS, 0.00702 µM	108	112	113
HPLM + 10% dialyzed FBS, 0.0211 µM	110	125	121
HPLM + 10% dialyzed FBS, 0.0632 µM	111	123	130
HPLM + 10% dialyzed FBS, 0.19 µM	102	127	133
HPLM + 10% dialyzed FBS, 0.569 µM	101	118	104
HPLM + 10% dialyzed FBS, 1.71 µM	103	122	104
HPLM + 10% dialyzed FBS, 5.12 µM	106	106	110
HPLM + 10% dialyzed FBS, 15.4 µM	97.1	101	75.8
HPLM + 10% dialyzed FBS, 46.1 µM	79.5	46.4	46.6
RPMI 5 mM glucose + 10% FBS, 0.000781 µM	104	–	100
RPMI 5 mM glucose + 10% FBS, 0.00234 µM	109	–	114
RPMI 5 mM glucose + 10% FBS, 0.00702 µM	109	–	113
RPMI 5 mM glucose + 10% FBS, 0.0211 µM	114	–	108
RPMI 5 mM glucose + 10% FBS, 0.0632 µM	116	–	113
RPMI 5 mM glucose + 10% FBS, 0.19 µM	111	–	92.2
RPMI 5 mM glucose + 10% FBS, 0.569 µM	107	–	116
RPMI 5 mM glucose + 10% FBS, 1.71 µM	104	–	107
RPMI 5 mM glucose + 10% FBS, 5.12 µM	117	–	93.6
RPMI 5 mM glucose + 10% FBS, 15.4 µM	85.3	–	84.8
RPMI 5 mM glucose + 10% FBS, 46.1 µM	62.8	–	47.7
RPMI 5 mM glucose + 10% dialyzed FBS, 0.000781 µM	101	64.9	91.6
RPMI 5 mM glucose + 10% dialyzed FBS, 0.00234 µM	115	111	101
RPMI 5 mM glucose + 10% dialyzed FBS, 0.00702 µM	123	146	121
RPMI 5 mM glucose + 10% dialyzed FBS, 0.0211 µM	125	138	115
RPMI 5 mM glucose + 10% dialyzed FBS, 0.0632 µM	118	121	114
RPMI 5 mM glucose + 10% dialyzed FBS, 0.19 µM	114	118	107
RPMI 5 mM glucose + 10% dialyzed FBS, 0.569 µM	118	105	108
RPMI 5 mM glucose + 10% dialyzed FBS, 1.71 µM	108	103	98.6
RPMI 5 mM glucose + 10% dialyzed FBS, 5.12 µM	107	113	98.3
RPMI 5 mM glucose + 10% dialyzed FBS, 15.4 µM	102	120	70.6
RPMI 5 mM glucose + 10% dialyzed FBS, 46.1 µM	81.5	57.8	49.2

AUC of viability dose-response curve
Details	[4]	[5]	[6]
HPLM + 10% dialyzed FBS	467	457	441
RPMI 5 mM glucose + 10% FBS	456	463	447
RPMI 5 mM glucose + 10% dialyzed FBS	458	465	441

COC(=O)N[C@H](C(=O)N[C@@H](Cc1ccccc1)[C@@H](O)CN(Cc1ccc(-c2ccccn2)cc1)NC(=O)[C@@H](NC(=O)OC)C(C)(C)C)C(C)(C)C
cell viability [%]
Details	[1]	[2]	[3]
HPLM + 10% dialyzed FBS, 0.000781 µM	118	–	–
HPLM + 10% dialyzed FBS, 0.00234 µM	107	–	–
HPLM + 10% dialyzed FBS, 0.00702 µM	102	–	–
HPLM + 10% dialyzed FBS, 0.0211 µM	107	–	–
HPLM + 10% dialyzed FBS, 0.0632 µM	124	–	–
HPLM + 10% dialyzed FBS, 0.19 µM	118	–	–
HPLM + 10% dialyzed FBS, 0.569 µM	102	–	–
HPLM + 10% dialyzed FBS, 1.71 µM	105	–	–
HPLM + 10% dialyzed FBS, 5.12 µM	107	–	–
HPLM + 10% dialyzed FBS, 15.4 µM	101	–	–
HPLM + 10% dialyzed FBS, 46.1 µM	25.4	–	–
RPMI 5 mM glucose + 10% FBS, 0.000781 µM	102	103	101
RPMI 5 mM glucose + 10% FBS, 0.00234 µM	117	123	105
RPMI 5 mM glucose + 10% FBS, 0.00702 µM	116	152	113
RPMI 5 mM glucose + 10% FBS, 0.0211 µM	107	111	100
RPMI 5 mM glucose + 10% FBS, 0.0632 µM	112	136	106
RPMI 5 mM glucose + 10% FBS, 0.19 µM	117	110	103
RPMI 5 mM glucose + 10% FBS, 0.569 µM	114	122	114
RPMI 5 mM glucose + 10% FBS, 1.71 µM	116	110	110
RPMI 5 mM glucose + 10% FBS, 5.12 µM	122	128	111
RPMI 5 mM glucose + 10% FBS, 15.4 µM	113	116	97.8
RPMI 5 mM glucose + 10% FBS, 46.1 µM	108	96.7	93.4
RPMI 5 mM glucose + 10% dialyzed FBS, 0.000781 µM	98.9	101	112
RPMI 5 mM glucose + 10% dialyzed FBS, 0.00234 µM	111	118	102
RPMI 5 mM glucose + 10% dialyzed FBS, 0.00702 µM	112	136	114
RPMI 5 mM glucose + 10% dialyzed FBS, 0.0211 µM	113	123	116
RPMI 5 mM glucose + 10% dialyzed FBS, 0.0632 µM	113	132	113
RPMI 5 mM glucose + 10% dialyzed FBS, 0.19 µM	107	131	103
RPMI 5 mM glucose + 10% dialyzed FBS, 0.569 µM	103	110	97.3
RPMI 5 mM glucose + 10% dialyzed FBS, 1.71 µM	99.2	113	101
RPMI 5 mM glucose + 10% dialyzed FBS, 5.12 µM	94.7	122	110
RPMI 5 mM glucose + 10% dialyzed FBS, 15.4 µM	98.2	123	101
RPMI 5 mM glucose + 10% dialyzed FBS, 46.1 µM	86.4	79.9	94.9

AUC of viability dose-response curve
Details	[4]	[5]	[6]
HPLM + 10% dialyzed FBS	455	464	388
RPMI 5 mM glucose + 10% FBS	467	457	470
RPMI 5 mM glucose + 10% dialyzed FBS	451	469	453

CCOC(=O)c1ncn2c1CN(C)C(=O)c1cc(F)ccc1-2
cell viability [%]
Details	[1]	[2]	[3]
HPLM + 10% dialyzed FBS, 0.000781 µM	120	78.9	131
HPLM + 10% dialyzed FBS, 0.00234 µM	113	104	124
HPLM + 10% dialyzed FBS, 0.00702 µM	113	87.2	124
HPLM + 10% dialyzed FBS, 0.0211 µM	117	93.3	117
HPLM + 10% dialyzed FBS, 0.0632 µM	107	92.9	123
HPLM + 10% dialyzed FBS, 0.19 µM	107	94.3	120
HPLM + 10% dialyzed FBS, 0.569 µM	111	97.2	109
HPLM + 10% dialyzed FBS, 1.71 µM	106	90.7	110
HPLM + 10% dialyzed FBS, 5.12 µM	72	79.8	108
HPLM + 10% dialyzed FBS, 15.4 µM	67.7	84.6	90
HPLM + 10% dialyzed FBS, 46.1 µM	62	52.9	73.6
RPMI 5 mM glucose + 10% FBS, 0.000781 µM	106	94.6	116
RPMI 5 mM glucose + 10% FBS, 0.00234 µM	113	111	130
RPMI 5 mM glucose + 10% FBS, 0.00702 µM	109	112	118
RPMI 5 mM glucose + 10% FBS, 0.0211 µM	114	92.5	111
RPMI 5 mM glucose + 10% FBS, 0.0632 µM	116	105	99.6
RPMI 5 mM glucose + 10% FBS, 0.19 µM	126	98.6	104
RPMI 5 mM glucose + 10% FBS, 0.569 µM	103	98.8	106
RPMI 5 mM glucose + 10% FBS, 1.71 µM	106	93.6	120
RPMI 5 mM glucose + 10% FBS, 5.12 µM	92.2	67.5	120
RPMI 5 mM glucose + 10% FBS, 15.4 µM	71.7	57.1	108
RPMI 5 mM glucose + 10% FBS, 46.1 µM	48.9	46.8	76.8
RPMI 5 mM glucose + 10% dialyzed FBS, 0.000781 µM	112	99	122
RPMI 5 mM glucose + 10% dialyzed FBS, 0.00234 µM	119	107	109
RPMI 5 mM glucose + 10% dialyzed FBS, 0.00702 µM	107	109	110
RPMI 5 mM glucose + 10% dialyzed FBS, 0.0211 µM	119	113	124
RPMI 5 mM glucose + 10% dialyzed FBS, 0.0632 µM	123	116	113
RPMI 5 mM glucose + 10% dialyzed FBS, 0.19 µM	113	131	107
RPMI 5 mM glucose + 10% dialyzed FBS, 0.569 µM	116	117	128
RPMI 5 mM glucose + 10% dialyzed FBS, 1.71 µM	102	87.3	95.7
RPMI 5 mM glucose + 10% dialyzed FBS, 5.12 µM	84.8	75.6	116
RPMI 5 mM glucose + 10% dialyzed FBS, 15.4 µM	74.4	79.6	103
RPMI 5 mM glucose + 10% dialyzed FBS, 46.1 µM	46.7	43.9	78.8

AUC of viability dose-response curve
Details	[4]	[5]	[6]
HPLM + 10% dialyzed FBS	427	421	433
RPMI 5 mM glucose + 10% FBS	432	420	432
RPMI 5 mM glucose + 10% dialyzed FBS	424	422	465
